Test results from paper PMC6681824 (Biochemistry, 2019).
Values joined by “and” are separate entries in the source; they are usually repeats but may differ in a detail not shown here. Equal values may be shown once. Read-outs that look alike come from different tables or passages of the source.

What was measured:
pol η = target: T1, pol η (Homo sapiens, UniProt Q9Y253); format: biochemical; conditions: for Kd: read-out: apparent Kd; for increase in G·T misincorporation rate constant (kpol), W versus B: G opposite T, W sequence compared to B sequence
T1 sequence (Q9Y253 1-713): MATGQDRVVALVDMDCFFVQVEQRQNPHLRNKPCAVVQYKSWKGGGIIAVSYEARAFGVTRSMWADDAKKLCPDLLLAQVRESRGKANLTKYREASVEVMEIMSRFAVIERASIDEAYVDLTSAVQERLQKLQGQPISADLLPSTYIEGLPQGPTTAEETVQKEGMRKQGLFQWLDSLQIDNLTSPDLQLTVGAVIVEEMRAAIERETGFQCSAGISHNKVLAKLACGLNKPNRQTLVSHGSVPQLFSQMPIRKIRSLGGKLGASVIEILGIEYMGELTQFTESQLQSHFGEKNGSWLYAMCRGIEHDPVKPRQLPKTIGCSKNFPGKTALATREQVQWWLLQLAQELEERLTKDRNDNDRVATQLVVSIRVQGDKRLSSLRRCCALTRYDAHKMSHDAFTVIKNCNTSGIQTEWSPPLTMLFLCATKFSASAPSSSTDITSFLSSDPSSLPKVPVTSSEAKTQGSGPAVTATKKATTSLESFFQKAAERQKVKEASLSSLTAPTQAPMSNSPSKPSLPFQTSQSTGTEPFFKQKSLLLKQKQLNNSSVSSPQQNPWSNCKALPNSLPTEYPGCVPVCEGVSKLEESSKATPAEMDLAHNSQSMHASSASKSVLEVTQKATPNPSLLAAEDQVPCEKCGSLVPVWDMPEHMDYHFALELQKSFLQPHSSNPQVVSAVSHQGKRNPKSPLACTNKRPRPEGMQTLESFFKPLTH

[1] = Potentiometric titration of leaving-group acids; format: physicochemical; conditions: 0.1 M KCl, 25 °C
[2] = A opposite T (correct), B sequence
[3] = A opposite T (correct), W sequence
[4] = G opposite T (mispair), B sequence
[5] = G opposite T (mispair), W sequence

SMILES | Kd (pol η; [2]) [µM] | Kd (pol η; [3]) [µM] | kpol (chemical misincorporation rate constant) (pol η; [4]) [s⁻¹] | kpol (chemical misincorporation rate constant) (pol η; [5]) [s⁻¹] | increase in G·T misincorporation rate constant (kpol), W versus B (pol η) | Kd (pol η; [4]) [µM] | Kd (pol η; [5]) [µM] | also measured
Nc1ncnc2c1ncn2[C@H]1CC(O)[C@@H](COP(=O)(O)OP(=O)(O)C(F)P(=O)(O)O)O1 (stereo partly shown) [dATP-CHF] | 190 ± 80 | 140 ± 20 | – | – | – | – | – | –
Nc1ncnc2c1ncn2[C@H]1C[C@H](O)[C@@H](COP(=O)(O)OP(=O)(O)OP(=O)(O)O)O1 [dATP] | 9.4 ± 3.1 | 7.1 ± 2.1 | – | – | – | – | – | –
Nc1nc2c(ncn2C2CC(O)C(COP(=O)(O)OP(=O)(O)C(F)P(=O)(O)O)O2)c(=O)[nH]1 (stereo not shown) [dGTP-CHF] | – | – | 0.032 ± 0.005 | 0.12 ± 0.00 | 3.8 fold and 4 fold | 370 ± 60 | 390 ± 20 | increase in G·T misincorporation rate constant (kpol), W versus B (pol η; listed as CHF-dG): 3–4 fold
Nc1nc2c(ncn2[C@H]2C[C@H](O)[C@@H](COP(=O)(O)OP(=O)(O)OP(=O)(O)O)O2)c(=O)[nH]1 [dGTP] | – | – | 0.21 ± 0.02 | 0.86 ± 0.02 | ~ 4 fold and 3–4 fold and 4 fold | 30 ± 3 | 20 ± 4 | –
O=P(O)(O)NP(=O)(O)O [imidodiphosphoric acid] | – | – | – | – | – | – | – | pKa1 [1]: 2.01; pKa2 [1]: 2.81; pKa3 [1]: 7.11; pKa4 (soln) ([1]; imidodiphosphoric acid (NH leaving group)): 9.70
